Tests used:
M. tuberculosis mc^26030 [1] = test: DNA-condensation incidence by fluorescence microscopy; assay type: cell-based, Mycobacterium tuberculosis; details: for fraction of bacilli with condensed DNA: 20 times the MIC50, 1 hour, vs control, P<0.05, FIG. 2D; for induction of condensation of the DNA: summary statement
M. tuberculosis mc^26030 [2] = assay type: cell-based, Mycobacterium tuberculosis; details: 1 hour after FA treatment vs untreated
M. smegmatis = test: Live cell imaging with bacterial viability staining; assay type: cell-based, Mycobacterium smegmatis; details: live-cell imaging started 5 minutes after FA addition
[3] = system: M. smegmatis mc^23449 SMC triple deletion mutant; assay type: cell-based, Mycobacterium smegmatis; details: FA 1 hour, FIGS. 6A-B
M. smegmatis mc^2155 [4] = test: Transmission electron microscopy of ultrathin sections; assay type: cell-based, Mycobacterium smegmatis; details: FA treated, early log phase
M. smegmatis mc^2155 [5] = test: DNA localization / DNA-condensation by fluorescence microscopy; assay type: cell-based, Mycobacterium smegmatis
M. smegmatis mc^2 155 = test: DNA volume quantification (deconvolved wide-field FM); assay type: cell-based, Mycobacterium smegmatis; details: incubated with FA for 1 hour, FIG. 5B
Experimental: Z-stack Wide-field FM images of fixed M. smegmatis mc^2 155 stained for DNA and lipids were collected at 200 nm increments. Deconvolution and DNA volume quantification was subsequently performed using standard deconvolution parameters of Huygens Professional software (Scientific Volume Imaging, SVI, Hilversum, The Netherlands). Average volume was determined for 60 bacteria per condition per experiment and standard deviation was calculated with 2-tailed T-test.

M. smegmatis mc^2155 [6] = test: Monitoring mycobacterial survival (OD600, CFU); assay type: cell-based, Mycobacterium smegmatis; details: combination of fusidic acid and Eis inhibition
Experimental: M. smegmatis mc^2155 overnight cultures were treated with FA, EIS inhibitor 1a*, or a combination hereof. Cultures were treated with antibiotic for 1 hour before second antibiotic was administered. Before treatment, and after 2 hours and at day 1,2,3 and 6, the OD600 was determined with a spectrophotometer, and a sample of the culture was fixed, or plated in a dilution series on 7H10 plates in triplo. At day 2, the antibiotic treatment was repeated. At least 3 independent experiments were quantified per condition.
In all experiments, factor correction was applied to remove systematic differences between the different measuring sessions needed to obtain the results. In case of 2 experimental conditions, Student's t-test was applied. […] To further dissect these effects, a 1-way ANOVA per time point was performed.

CC(=O)O[C@H]1C[C@@]2(C)[C@@H](C[C@@H](O)[C@H]3[C@@]4(C)CC[C@@H](O)[C@@H](C)[C@@H]4CC[C@@]32C)/C1=C(\CCC=C(C)C)C(=O)O [fusidic acid]
incidence of DNA-condensation after wash-out (reversibility) (M. tuberculosis mc^26030 [1]): increased until 6 hours after treatment, followed by a gradual reduction | fraction of bacilli with condensed DNA (M. tuberculosis mc^26030 [1]): increased the percentage bacteria with condensed DNA significantly | DNA localization after FA treatment (M. tuberculosis mc^26030 [1]; same experimental conditions as M. smegmatis, FIG. 2B): condensed their DNA into a single nucleoid | induction of condensation of the DNA (M. tuberculosis mc^26030 [1]): can induce condensation of the DNA | percentage of nonviable bacteria with condensed DNA (M. tuberculosis mc^26030 [2]): did not differ | percentage of viable bacteria with condensed DNA (M. tuberculosis mc^26030 [2]): increased significantly | time until first bacteria converted from viable to inviable (M. smegmatis): 16 min | DNA condensation after FA treatment in SMC triple knock out [3]: clearly visible | ultrastructural DNA localization (TEM) (M. smegmatis mc^2155 [4]): bundles of DNA were localized in a single compact nucleoid | DNA distribution after 2 days (M. smegmatis mc^2155 [5]; 2 days of incubation, first agent 1 hour before second): still displayed condensed DNA | bacteria that condensed their nucleoid (M. smegmatis mc^2155 [5]; after 1 hour of antibiotic stress, FIG. 2C): more than 80% | bacteria that condensed their DNA into a single nucleoid after FA treatment (M. smegmatis mc^2155 [5]; early log phase, FIG. 2A): more than 90% | average 3D volume of the DNA clusters (M. smegmatis mc^2 155): 0.24 μm^3 | potentiation of efficacy by the combination (M. smegmatis mc^2155 [6]): 10 fold

[H]/N=C(/N)N[C@H]1[C@H](O)[C@@H](O)[C@H](O[C@@H]2O[C@@H](C)[C@](O)(C=O)[C@H]2O[C@@H]2O[C@@H](CO)[C@H](O)[C@@H](O)[C@@H]2NC)[C@@H](N/C(N)=N\[H])[C@@H]1O [streptomycin]
fraction of bacilli with condensed DNA (M. tuberculosis mc^26030 [1]): increased the percentage bacteria with condensed DNA significantly | induction of condensation of the DNA (M. tuberculosis mc^26030 [1]): can induce condensation of the DNA

NNC(=O)c1ccncc1 [isoniazid]
induction of condensation of the DNA (M. tuberculosis mc^26030 [1]): can induce condensation of the DNA

CC(=O)NC[C@H]1CN(c2ccc(N3CCOCC3)c(F)c2)C(=O)O1 [linezolid]
induction of condensation of the DNA (M. tuberculosis mc^26030 [1]): can induce condensation of the DNA

CCn1cc(C(=O)O)c(=O)c2ccc(C)nc21 [nalidixic acid]
fraction of bacilli with condensed DNA (M. tuberculosis mc^26030 [1]): increased the percentage bacteria with condensed DNA significantly | induction of condensation of the DNA (M. tuberculosis mc^26030 [1]): can induce condensation of the DNA

— patent publication US11103504B2, “Combination of a DNA condensation-inducing compound and an Eis inhibitor for antibiotic treatment” (priority 2018, dated 2021)
